IC50 data for 50 compounds are collected here from patent US10899747B2, “Biaryl piperidine amide compounds and methods of use thereof” (Athenex, Inc., priority 2017, dated 2021).

The subject of this assay is IL-2. In words: PHA-IL2 (cell activation and cytokine analysis). It counts as cell-based. The note with it: 50% inhibition concentration class. Here is the method:
Cells to be tested may include, but are not limited to, a) Jurkat (a transformed human T cell leukemia), b) whole blood isolated from human or rodent sources, c) peripheral blood mononuclear cells (PBMC) freshly isolated from human or rodent whole blood, or d) purified fractions of PBMC (e.g., CD4 T cells). Cells are plated in 96-well plates at a final density of 1.0-2.0×10^6 cells/ml in 150 ul of assay medium (RPMI+0.5% fetal calf serum). Test compounds are included at a final concentration of ≤20 uM and generally pre-incubated with cells for 30 minutes prior to stimulation. An appropriate stimulus is added, including but not limited to, a) phytohemagglutinin (PHA), b) phorbol myristate acetate (PMA) and ionomycin, or c) stimulatory antibodies to the T cell receptor (TCR) complex (e.g., anti-CD3ε) and CD28. Cell cultures are stimulated for 24-48 hours in a humidified incubator (37 degrees C./5% CO2). A fraction of the culture supernatant is than harvested from each well and assayed for the presence of appropriate cytokine using standard ELISA. Cytokines to be analyzed may include IL-2, IL-4, IL-10, IL-17, IL-22, IFNγ, and/or TNFα. If required, the number of cytokine producing cells can be determined using intracellular staining and flow cytometry. […]

For the compound `O=C(COc1ccccc1-c1ccccc1OC(F)(F)F)N1CCC(CCc2ccc3c(c2)OCO3)CC1` [Compound 184], the IC50 (in general, the concentration needed to halve the response being measured) lay within 10000 to 50000 nM.
Regarding `Cn1ccc2cc(-c3ncccc3OCC(=O)N3CCC(CCc4ccc5c(c4)OCO5)CC3)ccc21` [Compound 379], the IC50 is 1000 to 10000 nM.
Next, `CN(C)CCCOc1ccc(-c2ccccc2OCC(=O)N2CCC(CCc3ccc4c(c3)OCO4)CC2)cn1` [Compound 171]: 10000 to 50000 nM; `CC(C)Oc1cccc(-c2ccccc2OCC(=O)N2CCC(CCc3ccc4c(c3)OCO4)CC2)c1` [Compound 243]: 1000 to 10000 nM.
As to `N#Cc1ccc(-c2cc(C(=O)Nc3ccccc3)ccc2OCC(=O)N2CCC(CCc3ccccc3)CC2)cc1` [Compound 369], the IC50 was in the range of 1000 to 10000 nM.
On to `O=C(C[S+]([O-])c1ccccc1-c1ccccc1)N1CCC(CCc2ccccc2)CC1` (centres unmarked) [Compound 312], for which the IC50 fell in the range of 10000 to 50000 nM.
As for `Cc1cc(F)ccc1-c1ccccc1OCC(=O)N1CCC(CCc2ccc3c(c2)OCO3)CC1` [Compound 262], the IC50 was 1000 to 10000 nM.
`O=C(CSc1ccccc1-c1ccccc1)N1CCC(CCc2ccc3c(c2)OCO3)CC1` [Compound 286] showed an IC50 of 1000 to 10000 nM.
`COc1cccc(CCC2CCN(C(=O)COc3cccnc3-c3ccc(C(F)(F)F)cc3O)CC2)c1` [Compound 363]: the IC50 was in the range of 1000 to 10000 nM.
For `O=C(c1ccccc1)c1ccc(-c2ccccc2OCC(=O)N2CCC(CCc3ccc4c(c3)OCO4)CC2)cc1` [Compound 198], the IC50 is < 1000 nM.
Take `COc1cccc(CCC2CCN(C(=O)COc3ccc(C(F)(F)F)cc3-c3ccc(F)cc3O)CC2)c1` [Compound 353]: the IC50 was < 1000 nM.
For `N#Cc1ccc(-c2ccccc2OCC(=O)N2CCC(CCc3ccc4c(c3)OCO4)CC2)cn1` [Compound 289], the IC50 is < 1000 nM.
On to `O=C(COc1ccccc1-c1ccc2[nH]ncc2c1)N1CCC(CCc2ccc3c(c2)OCCO3)CC1` [Compound 293], for which the IC50 is < 1000 nM.
For `O=C(COc1ccccc1-c1ccc(F)cc1)N1CCC(CCc2ccc3c(c2)OCO3)CC1` [Compound 164], the IC50 lay within 1000 to 10000 nM.
Compound `O=C(COc1ccccc1-c1ccc(OC(F)(F)F)cc1)N1CCC(CCc2ccc3c(c2)OCO3)CC1` [Compound 178] had an IC50 of 1000 to 10000 nM.
Take `Cc1cnc(C#CC2CCN(C(=O)COc3ccc(C#N)cc3-c3ccc(C#N)cc3)CC2)cn1` [Compound 425]: the IC50 was 1000 to 10000 nM.
In turn, `N#Cc1ccc(-c2cc(C#N)ccc2OCC(=O)N2CCC(C#Cc3cnccn3)CC2)cc1` [Compound 429] yielded an IC50 of 1000 to 10000 nM.
As to `CCc1ccc(OCC(=O)N2CCC(CCc3ccc4c(c3)OCO4)CC2)c(-c2ccc(C#N)cc2)c1` [Compound 274], the IC50 is 1000 to 10000 nM.
Compound `COc1cccc(CCC2CCN(C(=O)COc3cccnc3-c3ccc4c(ccn4C)c3)CC2)c1` [Compound 378] yielded an IC50 of 1000 to 10000 nM.
In turn, `Cc1cc(F)ncc1-c1ncccc1OCC(=O)N1CCC(CCc2ccccc2)CC1` [Compound 333] yielded an IC50 of 10000 to 50000 nM.
With `CCOc1ccc(CCC2CCN(C(=O)COc3ccccc3-c3ccc(C(=O)c4ccccc4)cc3)CC2)cc1` [Compound 311], the IC50 was < 1000 nM.
As for `COc1cccc(CCC2CCN(C(=O)CSc3ccccc3-c3ccccc3)CC2)c1` [Compound 287], the figure is 1000 to 10000 nM; as for `Cn1ncc2cc(-c3ncccc3OCC(=O)N3CCC(CCc4ccc5c(c4)OCO5)CC3)ccc21` [Compound 375], 1000 to 10000 nM; as for `CC1Oc2ccc(CCC3CCN(C(=O)COc4ccccc4-c4ccc(Cl)nc4)CC3)cc2OC1C` (centres unmarked) [Compound 265], < 1000 nM.
Regarding `CC(C)Oc1cccc(CCC2CCN(C(=O)COc3cccnc3-c3ccc(F)cc3O)CC2)c1` [Compound 408], the IC50 was < 1000 nM.
The compound `CCc1ccc(-c2ccccc2OCC(=O)N2CCC(CCc3ccc4c(c3)OCO4)CC2)cc1` [Compound 156] showed an IC50 of 1000 to 10000 nM.
For `N#Cc1ccc(OCC(=O)N2CCC(CCc3cccc(OC4CC4)c3)CC2)c(-c2ccc(F)cc2O)c1` [Compound 407], the IC50 was < 1000 nM.
Take `O=C(COc1ccccc1-c1ccc(C(F)(F)F)cc1F)N1CCC(CCc2ccc3c(c2)OCO3)CC1` [Compound 237]: the IC50 is < 1000 nM.
As to `CCOc1ccc(CCC2CCN(C(=O)COc3ccccc3-c3ccc(F)cc3O)CC2)cc1` [Compound 309], the IC50 is < 1000 nM.
As to `O=C(COc1ccccc1-c1ccc(F)cc1O)N1CCC(CCc2ccc(OCCN3CCOCC3)cc2)CC1` [Compound 349], the IC50 lay within 1000 to 10000 nM.
For `O=C(COc1ccccc1-c1ccc(F)nc1)N1CCC(CCc2ccc3c(c2)OCCCO3)CC1` [Compound 266], the IC50 is < 1000 nM.
As for `N#Cc1ccc(OCC(=O)N2CCC(CCc3cccc(OCCN4CCOCC4)c3)CC2)c(-c2ccc(F)cc2O)c1` [Compound 354], the figure is 1000 to 10000 nM; as for `Cc1ccc(F)cc1CCC1CCN(C(=O)COc2ccccc2-c2ccc(F)cc2O)CC1` [Compound 306], < 1000 nM.
As for `CC(C)Oc1ccc(CCC2CCN(C(=O)COc3ccccc3-c3ccc(C#N)cc3)CC2)cc1` [Compound 430], the figure is < 1000 nM; as for `Cc1cc(F)ncc1-c1ccccc1OCC(=O)N1CCC(CCc2ccc3c(c2)OCO3)CC1` [Compound 248], 10000 to 50000 nM; as for `O=C(COc1ccccc1-c1ccc2[nH]cnc2c1)N1CCC(CCc2ccc(O)cc2)CC1` [Compound 383], 1000 to 10000 nM.
Take `COc1cccc(CCC2CCN(C(=O)C(C)Oc3c(C)cccc3-c3ccccc3)CC2)c1` (centres unmarked) [Compound 235]: the IC50 is < 1000 nM.
Consider `N#Cc1ccc(-c2ccccc2OCC(=O)N2CCC(CCc3ccc4c(c3)OCO4)CC2)cc1` [Compound 166], for which the IC50 was < 1000 nM.
As for `Nc1ccc(-c2ccccc2OCC(=O)N2CCC(CCc3ccc4c(c3)OCO4)CC2)cc1` [Compound 195], the figure is 10000 to 50000 nM; as for `N#Cc1ccc(-c2ccccc2OCC(=O)N2CCC(CCc3ccc4c(c3)OCCCO4)CC2)cc1` [Compound 231], < 1000 nM; as for `CC(C)Oc1cccc(CCC2CCN(C(=O)COc3ccccc3-c3cc(C#N)ccc3OCc3ccccc3)CC2)c1` [Compound 440], < 1000 nM.
`N#Cc1ccc(-c2cc(C(=O)N3CCOCC3)ccc2OCC(=O)N2CCC(CCc3ccccc3)CC2)cc1` [Compound 318]: the IC50 fell in the range of 1000 to 10000 nM.
With `N#Cc1ccc(-c2cc(C(=O)NC3CCOCC3)ccc2OCC(=O)N2CCC(CCc3ccccc3)CC2)cc1` [Compound 368], the IC50 was in the range of 1000 to 10000 nM.
For `O=C(COc1ccccc1-c1ccc(C(F)(F)F)cc1)N1CCC(CCc2ccc3c(c2)OCO3)CC1` [Compound 203], the IC50 is < 1000 nM.
As to `O=C(COc1cccnc1-c1ccc2[nH]ccc2c1)N1CCC(CCc2ccccc2)CC1` [Compound 376], the IC50 fell in the range of 1000 to 10000 nM.
`O=C(COc1ccccc1-c1ccccc1Oc1ccccc1)N1CCC(CCc2ccc3c(c2)OCO3)CC1` [Compound 216]: the IC50 was < 1000 nM.
Next, `O=C(COc1ccccc1-c1ccccc1)N1CCC(CCc2cc3c(cc2CO)OCO3)CC1` [Compound 285]: 1000 to 10000 nM; `O=C1NCCOc2ccc(CCC3CCN(C(=O)COc4ccccc4-c4ccccc4)CC3)cc21` [Compound 284]: < 1000 nM; `N#Cc1ccc(-c2ccccc2OCC(=O)N2CCC(CCc3cccc(OC4CC4)c3)CC2)cc1` [Compound 406]: < 1000 nM.
On to `O=C(COc1ccccc1-c1ccc(F)cc1O)N1CCC(CCc2ccc3c(c2)OCO3)CC1` [Compound 288], for which the IC50 was < 1000 nM.
